The record followed here is patent US20110251247A1, “SUBSTITUTED ISOXAZOLINE DERIVATIVES” (PFIZER INC., priority 2010, published 2011).

Format in all cases: in vivo
Assay [1] relates to Hard Tick Larvae (Rhipicephalus sanquineus). Briefly: Hard Tick Larvae (Rhipicephalus sanquineus) Whole Organism Contact Assay. To be noted: tick larvae in coated vials; knockdown examined at approximately 24 and 48 hours. The method, then:
Hard Tick Larvae (Rhipicephalus sanquineus) Whole Organism Contact Assay
Formula (1) compounds were dissolved in isopropyl alcohol (IPA) and aliquots were added to vials placed on a roller for at least 2 hours to allow the IPA to evaporate. IPA alone was used as a negative control and fipronil was used as a positive control. Approximately 50-200 tick larvae were added to the vials using a swab and the vials were closed. At approximately 24 and 48 hours, the vials were examined and knockdown was recorded as active. Vials showing knockdown were examined for tick paralysis and/or death at approximately 48 hrs. Endpoint data can be recorded as an effective dose 100% (ED^100) and/or a lethal dose 100% (LD^100) in μg/cm^2.

Assay [2] relates to Horn Fly (Haematobia irritans). In words: Horn Fly (Haematobia irritans) Feed Assay. To be noted: horn flies fed on treated citrated bovine blood; knockdown and mortality at approximately 2 and 24 hours. The method, then: Horn Fly (Haematobia irritans) Feed Assay
Formula (1) compounds were dissolved in DMSO and aliquots were added to citrated bovine blood in a membrane covered Petri dish. Approximately ten horn flies were placed onto each Petri dish and covered. The flies were allowed to feed on the treated blood cell. Flies were held at approximately 80° F. with a minimum of approximately 50% relative humidity. Flies were examined for knockdown and mortality at approximately 2 and 24 hours. Endpoint data were recorded as a lethal dose 90% (LD^90) in μg/mL.

Assay [3] concerns Flea (Ctenocephalides felis). Briefly: Flea (Ctenocephalides felis) Membrane Feed Assay-Adult. Particulars: adult fleas fed on treated citrated bovine blood for approximately 2 hours; knockdown and/or death at approximately 2 and 24 hours. The method, then:
Flea (Ctenocephalides felis) Membrane Feed Assay-Adult
Formula (1) compounds were dissolved in DMSO and aliquots were added to citrated bovine blood in a membrane covered Petri dish pre-warmed to 37° C. Feeding tubes containing approximately 30-35 adult fleas were placed onto the Petri dishes. The fleas were allowed to feed for approximately 2 hours. […] Endpoint data were recorded as an efficacious dose 80% (ED^80) in μg/mL.

Turning to `CCNC(=O)CC(=O)NCc1cc(C2=NOC(c3cc(Cl)c(Cl)c(Cl)c3)(C(F)(F)F)C2)ccc1F` (stereo not shown) [Example 1, N-ethyl-N′-{2-fluoro-5-[5-(3,4,5-trichloro-phenyl)-5-trifluoromethyl-4,5-dihydro-isoxazol-3-yl]-benzyl}-malonamide], the “ED^100 (effective dose 100%)” value in assay [1] is reported as 10.0 μg/cm^2. Same read-out and setting: the result for `O=C(CC(=O)NCC1CC1)NCc1cc(C2=NOC(c3cc(Cl)c(Cl)c(Cl)c3)(C(F)(F)F)C2)ccc1F` (stereo not shown) [Example 2, N-Cyclopropylmethyl-N′-{2-fluoro-5-[5-(3,4,5-trichloro-phenyl)-5-trifluoromethyl-4,5-dihydro-isoxazol-3-yl]-benzyl}-malonamide] reads 10.0 μg/cm^2. On to `CC(=O)NCc1cc(C2=NOC(c3cc(Cl)c(Cl)c(Cl)c3)(C(F)(F)F)C2)ccc1F` (stereo not shown) [Example 3, N-{5-[5-(3,4,5-trichlorophenyl)-5-(trifluoromethyl)-4,5-dihydroisoxazol-3-yl]-2-fluorobenzyl}acetamide], for which, in assay [2], the “LD^90 (lethal dose 90%)” value came out at 10 µg/mL. In addition, in assay [3], the “ED^80 (efficacious dose 80%)” value was determined as 3 µg/mL. For `CC(C)C(=O)NCc1cc(C2=NOC(c3cc(Cl)c(Cl)c(Cl)c3)(C(F)(F)F)C2)ccc1F` (stereo not shown) [Example 4, N-{2-fluoro-5-[5-(3,4,5-trichlorophenyl)-5-(trifluoromethyl)-4,5-dihydroisoxazol-3-yl]benzyl}-2-methylpropanamide], the “LD^90 (lethal dose 90%)” value in assay [2] worked out at 1 µg/mL.

Take `O=C(NCc1cc(C2=NOC(c3cc(Cl)c(Cl)c(Cl)c3)(C(F)(F)F)C2)ccc1F)C1CC1` (stereo not shown) [Example 5, N-{2-fluoro-5-[5-(3,4,5-trichlorophenyl)-5-(trifluoromethyl)-4,5-dihydroisoxazol-3-yl]benzyl}cyclopropanecarboxamide]: in assay [2], the “LD^90 (lethal dose 90%)” value was 1 µg/mL. Further, the “ED^80 (efficacious dose 80%)” value in assay [3] was found to be 3 µg/mL.

With `O=C(NCc1cc(C2=NOC(c3cc(Cl)c(Cl)c(Cl)c3)(C(F)(F)F)C2)ccc1F)C1CCC1` (stereo not shown) [Example 6, N-{2-fluoro-5-[5-(3,4,5-trichlorophenyl)-5-(trifluoromethyl)-4,5-dihydroisoxazol-3-yl]benzyl}cyclobutanecarboxamide], the “LD^90 (lethal dose 90%)” value in assay [2] was determined as 3 µg/mL. In assay [3], the “ED^80 (efficacious dose 80%)” value turned out to be 10 µg/mL. For `CCC(=O)NCc1cc(C2=NOC(c3cc(Cl)c(Cl)c(Cl)c3)(C(F)(F)F)C2)ccc1F` (stereo not shown) [Example 7, N-{2-fluoro-5-[5-(3,4,5-trichlorophenyl)-5-(trifluoromethyl)-4,5-dihydroisoxazol-3-yl]benzyl}propanamide] the same measures were 1 µg/mL and 10 µg/mL. In the case of `O=C(CC1CC1)NCc1cc(C2=NOC(c3cc(Cl)c(Cl)c(Cl)c3)(C(F)(F)F)C2)ccc1F` (stereo not shown) [Example 8, 2-cyclopropyl-N-{2-fluoro-5-[5-(3,4,5-trichlorophenyl)-5-(trifluoromethyl)-4,5-dihydroisoxazol-3-yl]benzyl}acetamide], in assay [2], the “LD^90 (lethal dose 90%)” value stood at 3 µg/mL. Same read-out and setting: next, `CC(C)CC(=O)NCc1cc(C2=NOC(c3cc(Cl)c(Cl)c(Cl)c3)(C(F)(F)F)C2)ccc1F` (stereo not shown) [Example 9, N-{2-fluoro-5-[5-(3,4,5-trichlorophenyl)-5-(trifluoromethyl)-4,5-dihydroisoxazol-3-yl]benzyl}-3-methylbutanamide]: 3 µg/mL; `CC(=O)NCc1cc(C2=NOC(c3cc(Cl)c(F)c(Cl)c3)(C(F)(F)F)C2)ccc1F` (stereo not shown) [Example 11, N-{5-[5-(3,5-dichloro-4-fluorophenyl)-5-(trifluoromethyl)-4,5-dihydroisoxazol-3-yl]-2-fluorobenzyl}acetamide]: 3 µg/mL. In the case of `O=C(NCc1cc(C2=NOC(c3cc(Cl)c(F)c(Cl)c3)(C(F)(F)F)C2)ccc1F)C1CC1` (stereo not shown) [Example 12, N-{5-[5-(3,5-dichloro-4-fluorophenyl)-5-(trifluoromethyl)-4,5-dihydroisoxazol-3-yl]-2-fluorobenzyl}cyclopropanecarboxamide], the “ED^80 (efficacious dose 80%)” value in assay [3] worked out at 3 µg/mL. On the same count and under the same terms, the result for `O=C(NCc1cc(C2=NOC(c3cc(Cl)c(F)c(Cl)c3)(C(F)(F)F)C2)ccc1F)C1CC(F)(F)C1` (stereo not shown) [Example 13, N-{5-[5-(3,5-dichloro-4-fluorophenyl)-5-(trifluoromethyl)-4,5-dihydroisoxazol-3-yl]-2-fluorobenzyl}-3,3-difluorocyclobutanecarboxamide] reads 3 µg/mL.

Turning to `CC(=O)NCc1cc(C2=NOC(c3cc(Cl)c(F)c(Cl)c3)(C(F)(F)F)C2)ccc1Cl` (stereo not shown) [Example 17, N-{2-chloro-5-[5-(3,5-dichloro-4-fluorophenyl)-5-(trifluoromethyl)-4,5-dihydroisoxazol-3-yl]benzyl}acetamide], the “LD^90 (lethal dose 90%)” value in assay [2] was 1 µg/mL. Take `CC(=O)NCc1cc(C2=NOC(c3cc(Cl)c(Cl)c(Cl)c3)(C(F)(F)F)C2)ccc1Br` (stereo not shown) [Example 18, N-(2-bromo-5-(5-(3,4,5-trichlorophenyl)-5-(trifluoromethyl)-4,5-dihydroisoxazol-3-yl)benzyl)acetamide]: the “LD^90 (lethal dose 90%)” value in assay [2] came to 1 µg/mL. The “ED^80 (efficacious dose 80%)” value in assay [3] came to 10 µg/mL.
